Reference: patent US7264932B2, “Nuclease inhibitor cocktail” (Applera Corporation, priority 1999, dated 2007)

Legend:
Assay type in all cases: biochemical
[1] = target: T1, RNase A (Bos taurus, UniProt P61823); experiment: Radiolabeled RNA probe degradation gel assay, RNase A; details: DTT up to 250 mM, at 37° C.
T1 sequence (P61823 27-150): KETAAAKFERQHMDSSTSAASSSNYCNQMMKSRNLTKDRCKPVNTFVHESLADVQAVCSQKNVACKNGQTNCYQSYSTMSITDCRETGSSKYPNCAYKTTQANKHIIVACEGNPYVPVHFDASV
Experimental: The activity of an anti-nuclease cocktail is readily determined using radiolabeled RNA or DNA to detect the inhibition of nuclease by anti-nuclease antibodies in the anti-nuclease cocktail. […] Assay buffer, nuclease and an anti-nuclease cocktail are then added to 0.5 ml microfuge tubes. A mixture comprising assay buffer, RNA or DNA and radiolabeled RNA or DNA is added to the microfuge tubes, and the tubes are vortexed and microfuged. After incubation of the tubes at 37° C. for 30 minutes, a portion of the tube contents is removed and placed into gel loading buffer. After mixing, the combination is loaded onto a gel, typically a 8M urea/5% acrylamide gel, which is exposed to film.
Radiolabeled RNA was used to detect the inhibition of RNase A, RNase T1, and RNase 1 by specific antibodies.
The “MIX” was prepared by combining 10× Assay Buffer (0.9 μl/rxn), 5 mg/ml yeast RNA (0.4 μl/rxn), ^32P-labeled β actin RNA (1 μl/rxn), and nuclease-free H2O (6.7 μl/rxn), for a total of 9 μl/rxn.
1× Assay Buffer was added first. Then Specific RNase Cocktail, Specific Anti-RNase Cocktail and MIX were added. The tubes are vortexed and microfuged, then incubated at 37° C. for 30 min (Table 9).
At the end of the incubation time, 10 μl of solution was removed from the tube and placed into 10 μl Gel Loading Buffer II. The combination was mixed thoroughly and loaded onto a 8M urea/5% acrylamide gel. The gel was exposed to film for 30 min. at −80° C. with an intensifying screen.

[2] = target: E. coli RNase 1 (Escherichia coli, UniProt P21338); experiment: Radiolabeled RNA probe degradation gel assay, RNase 1; details: 1 U RNase 1, 30 minute incubation at 37° C.
Experimental: (§1) The activity of anti-nuclease antibodies is readily determined using radiolabeled RNA or DNA to detect the inhibition of RNase or DNase by the anti-nuclease antibodies. In general, the nuclease and anti-nuclease antibody are separately diluted, typically in 1× assay buffer. Assay buffer, nuclease and anti-nuclease antibody are then added to 0.5 ml microfuge tubes. For assaying anti-RNase activity, a mixture comprising assay buffer, RNA and radiolabeled RNA is added to the microfuge tubes. The “MIX” of assay buffer, RNA and radiolabeled RNA is generally prepared by combining 10× Assay Buffer (0.9 μl/rxn), 5 mg/ml yeast RNA (0.4 μl/rxn), ^32-β actin RNA (1 μl/rxn), and nuclease-free H2O (6.7 μl/rxn) for a total of 9 μl/rxn. The tubes are vortexed and microfuged, then incubated at 37° C. for 30 minutes. After incubation, a portion of the tube contents is removed and placed into gel loading buffer. Then the tube contents and the gel loading buffer are mixed, and the combination is loaded onto a gel, typically a 8M urea/5% acrylamide gel, which is exposed to film. […]
(§2) The activity of an anti-nuclease cocktail is readily determined using radiolabeled RNA or DNA to detect the inhibition of nuclease by anti-nuclease antibodies in the anti-nuclease cocktail. […]

[3] = target: T2, RNase T1 (Aspergillus oryzae, UniProt P00651); experiment: Radiolabeled RNA probe degradation gel assay, RNase T1; details: 0.15 U RNase T1
T2 sequence (P00651 27-130): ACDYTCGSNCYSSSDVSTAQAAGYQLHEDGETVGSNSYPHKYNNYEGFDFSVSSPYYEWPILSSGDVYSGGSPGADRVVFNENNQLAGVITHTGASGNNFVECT
Experimental: as §1, §2

Sequence of E. coli RNase 1 (P21338 24-268): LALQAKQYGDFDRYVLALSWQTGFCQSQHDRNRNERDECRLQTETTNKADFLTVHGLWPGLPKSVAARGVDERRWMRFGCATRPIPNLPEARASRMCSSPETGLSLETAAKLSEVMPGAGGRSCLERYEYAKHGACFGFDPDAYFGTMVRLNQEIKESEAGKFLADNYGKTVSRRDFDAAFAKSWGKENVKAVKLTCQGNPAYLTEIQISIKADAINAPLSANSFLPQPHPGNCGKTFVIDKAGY

Compound: O[C@H](CS)[C@H](O)CS (racemic) [DTT, dithiothreitol]
- inhibition of RNase A activity [1]: At 37° C., DTT up to 250 mM did not inhibit RNase Aactivity.
- concentration that inhibited RNase 1 [2]: 1–3 mM DTT inhibited 1 U RNase 1 during 30 minute incubation at 37 °C
- concentration that inhibited RNase T1 [3]: 5–10 mM DTT inhibited 0.15 U RNase T1
